The text below walks through data of patent publication US11226337B2, “Chemoproteomic profiling of protein electrophilic and oxidative post-translational modifications” (Zenagem, LLC, priority 2017, dated 2022).

One data set concerns HEK293T cells. Nature of the data set: CellTiter-Glo luminescence cell viability assay. The format is cell-based, human. The note with it: probe 1 3 mM, 1 hour, 37° C., n=4; untreated 132±2. The procedure: Working stock solutions of probes and competitors were neutralized prior to treatment and media was supplemented with 10 mM Na-HEPES (pH 7.5) to enhance the buffer capacity to ensure the pH was maintained. The phenol red pH indicator of the media confirmed that there was no substantial change in pH during the treatment. Cell viability was quantified based on ATP levels in the absence and presence of probe 1 with or without competitor probe 3 using the CellTiter-Glo luminescence assay (Promega). Trypsinized HEK293T cells were diluted in serum-free DMEM supplemented with 10 mM Na-HEPES to a final concentration of 0.8 million cells/mL. To a cell culture microplate (Greiner Bio-One No. 655098; white, 96-well, 34 mm^2 growth area per well, Clear bottom), 80,000 cells (100 μL of cell suspension) were plated per well. […] After 20 minutes at ambient temperature, luminescence was measured on a Biotech Synergy 4 plate reader. Well luminescence, in relative light units (RLU), under each condition (n=4 of each) was measured to determine cell viability according to the formula: Iuntreated, Iprobe 1, and Iprobe 1/competitor 3=(132±2, 139±2, and 134±1)×10^3 RLU. “Iuntreated” refers to the intensity of luminescence of untreated cells; and “Iprobe 1” refers to the intensity of luminescence of probe-1 treated cells.
On the technique in general: In ATP-based viability assays light output follows the ATP content of the culture.

The target in data set [1] is T1, BLMH Bleomycin hydrolase (Q13867) (Homo sapiens, UniProt Q13867).
T1 construct: In Situ Labelling of Cells with Hydrazine Probes for MS Experiments; endogenous in cells
Nature of the data set: SILAC RP-ABPP. The format is cell-based. The note with it: SILAC H/L, HEK293T. Put shortly: (§1)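 Heavy SILAC HEK293T or MDA-MB-231 cells were treated with hydrazine probe 1 (3 mM, 0.5 h); light cells received non-clickable hydrazine 3 at the same concentration (enrichment) or probe plus 10× competitor 3 (competition). Lysates were mixed, clicked to biotin-azide and analysed by LC-MS; values are median heavy:light peptide ratios averaged over ≥3 replicates.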

Data set [2] concerns the target T2, ALDH9A1 4trimethylaminobutyraldehyde (P49189) (Homo sapiens, UniProt P49189).
T2 construct: shared by both the endogenous and recombinant forms of these proteins; endogenous in cells; host or cells: HEK293T and MDA-MB-231
Nature of the data set: SILAC RP-ABPP. The format is cell-based. The note with it: SILAC H/L, HEK293T. The procedure, abridged: as §1

For data set [3], the target named is T3, IRS4 Insulin receptor substrate 4 (O14654) (Homo sapiens, UniProt O14654).
T3 construct: In Situ Labelling of Cells with Hydrazine Probes for MS Experiments; endogenous in cells
Nature of the data set: SILAC RP-ABPP. The class given is cell-based. The note with it: SILAC H/L, HEK293T. Put shortly: as §1

Data set [4] deals with T4, VAPA Vesicleassociated membrane (Q9P0L0) (Homo sapiens, UniProt Q9P0L0).
T4 construct: In Situ Labelling of Cells with Hydrazine Probes for MS Experiments; endogenous in cells
As to the kind of experiment: SILAC RP-ABPP. The format is cell-based. The note with it: SILAC H/L, MDA-MB-231. The procedure, abridged:
as §1

The target in data set [5] is T5, PITRM1 Presequence protease mitochondrial (Q5JRX3) (Homo sapiens, UniProt Q5JRX3).
T5 construct: In Situ Labelling of Cells with Hydrazine Probes for MS Experiments; endogenous in cells
As to the kind of experiment: SILAC RP-ABPP. The format is cell-based. The note with it: SILAC H/L, MDA-MB-231. Put shortly: as §1

T4 sequence (Q9P0L0 whole entry): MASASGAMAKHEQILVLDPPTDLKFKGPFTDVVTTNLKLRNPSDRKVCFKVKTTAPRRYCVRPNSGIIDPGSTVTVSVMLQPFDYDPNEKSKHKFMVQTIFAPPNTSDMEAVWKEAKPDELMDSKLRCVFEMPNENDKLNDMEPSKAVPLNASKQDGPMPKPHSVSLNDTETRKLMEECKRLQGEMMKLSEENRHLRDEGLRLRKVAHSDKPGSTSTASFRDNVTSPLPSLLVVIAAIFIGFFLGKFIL
T1 sequence (Q13867 whole entry): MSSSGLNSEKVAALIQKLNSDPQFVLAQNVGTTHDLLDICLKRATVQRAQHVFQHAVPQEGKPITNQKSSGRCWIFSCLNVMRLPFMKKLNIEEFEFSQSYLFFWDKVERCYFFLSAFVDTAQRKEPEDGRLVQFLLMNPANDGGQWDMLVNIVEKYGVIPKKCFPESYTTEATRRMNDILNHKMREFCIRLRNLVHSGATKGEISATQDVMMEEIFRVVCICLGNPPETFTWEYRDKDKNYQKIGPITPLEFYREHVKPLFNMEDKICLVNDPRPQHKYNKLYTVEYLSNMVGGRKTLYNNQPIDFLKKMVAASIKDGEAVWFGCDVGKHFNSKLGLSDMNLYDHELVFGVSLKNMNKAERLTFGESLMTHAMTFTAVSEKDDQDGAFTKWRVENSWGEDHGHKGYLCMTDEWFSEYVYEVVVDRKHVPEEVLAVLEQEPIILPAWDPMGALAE
T3 sequence (O14654 whole entry): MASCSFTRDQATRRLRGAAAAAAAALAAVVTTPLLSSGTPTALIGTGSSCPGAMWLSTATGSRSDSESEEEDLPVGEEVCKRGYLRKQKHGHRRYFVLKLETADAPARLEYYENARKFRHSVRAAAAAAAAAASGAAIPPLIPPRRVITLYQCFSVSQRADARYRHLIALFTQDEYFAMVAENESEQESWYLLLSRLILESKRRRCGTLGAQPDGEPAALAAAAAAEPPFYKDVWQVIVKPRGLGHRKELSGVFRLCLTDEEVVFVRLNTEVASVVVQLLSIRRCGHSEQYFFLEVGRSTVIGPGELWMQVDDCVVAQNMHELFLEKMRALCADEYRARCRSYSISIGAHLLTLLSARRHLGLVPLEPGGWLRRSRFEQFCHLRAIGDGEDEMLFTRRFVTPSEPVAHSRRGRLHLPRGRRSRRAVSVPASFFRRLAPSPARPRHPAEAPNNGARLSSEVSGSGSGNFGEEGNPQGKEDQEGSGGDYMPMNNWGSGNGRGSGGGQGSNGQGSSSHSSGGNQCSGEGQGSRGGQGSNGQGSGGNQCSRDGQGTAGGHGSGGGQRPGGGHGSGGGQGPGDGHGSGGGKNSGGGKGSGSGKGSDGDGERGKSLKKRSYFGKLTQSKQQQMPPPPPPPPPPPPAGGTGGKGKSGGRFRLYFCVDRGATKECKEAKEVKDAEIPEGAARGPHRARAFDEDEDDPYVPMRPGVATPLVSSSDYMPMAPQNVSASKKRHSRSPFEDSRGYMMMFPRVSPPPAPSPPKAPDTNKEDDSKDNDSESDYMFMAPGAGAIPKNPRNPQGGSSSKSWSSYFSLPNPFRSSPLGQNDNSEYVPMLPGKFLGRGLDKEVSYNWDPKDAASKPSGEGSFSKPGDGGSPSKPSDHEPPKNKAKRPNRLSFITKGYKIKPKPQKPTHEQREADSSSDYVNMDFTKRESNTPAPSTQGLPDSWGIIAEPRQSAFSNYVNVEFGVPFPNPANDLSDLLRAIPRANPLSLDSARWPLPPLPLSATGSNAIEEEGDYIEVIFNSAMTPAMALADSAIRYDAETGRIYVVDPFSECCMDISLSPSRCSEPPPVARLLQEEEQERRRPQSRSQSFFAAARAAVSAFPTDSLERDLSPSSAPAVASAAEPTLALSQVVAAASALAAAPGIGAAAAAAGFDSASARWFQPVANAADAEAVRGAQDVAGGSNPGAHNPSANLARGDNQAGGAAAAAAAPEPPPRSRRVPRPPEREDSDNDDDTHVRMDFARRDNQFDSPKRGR
T5 sequence (Q5JRX3 29-1037): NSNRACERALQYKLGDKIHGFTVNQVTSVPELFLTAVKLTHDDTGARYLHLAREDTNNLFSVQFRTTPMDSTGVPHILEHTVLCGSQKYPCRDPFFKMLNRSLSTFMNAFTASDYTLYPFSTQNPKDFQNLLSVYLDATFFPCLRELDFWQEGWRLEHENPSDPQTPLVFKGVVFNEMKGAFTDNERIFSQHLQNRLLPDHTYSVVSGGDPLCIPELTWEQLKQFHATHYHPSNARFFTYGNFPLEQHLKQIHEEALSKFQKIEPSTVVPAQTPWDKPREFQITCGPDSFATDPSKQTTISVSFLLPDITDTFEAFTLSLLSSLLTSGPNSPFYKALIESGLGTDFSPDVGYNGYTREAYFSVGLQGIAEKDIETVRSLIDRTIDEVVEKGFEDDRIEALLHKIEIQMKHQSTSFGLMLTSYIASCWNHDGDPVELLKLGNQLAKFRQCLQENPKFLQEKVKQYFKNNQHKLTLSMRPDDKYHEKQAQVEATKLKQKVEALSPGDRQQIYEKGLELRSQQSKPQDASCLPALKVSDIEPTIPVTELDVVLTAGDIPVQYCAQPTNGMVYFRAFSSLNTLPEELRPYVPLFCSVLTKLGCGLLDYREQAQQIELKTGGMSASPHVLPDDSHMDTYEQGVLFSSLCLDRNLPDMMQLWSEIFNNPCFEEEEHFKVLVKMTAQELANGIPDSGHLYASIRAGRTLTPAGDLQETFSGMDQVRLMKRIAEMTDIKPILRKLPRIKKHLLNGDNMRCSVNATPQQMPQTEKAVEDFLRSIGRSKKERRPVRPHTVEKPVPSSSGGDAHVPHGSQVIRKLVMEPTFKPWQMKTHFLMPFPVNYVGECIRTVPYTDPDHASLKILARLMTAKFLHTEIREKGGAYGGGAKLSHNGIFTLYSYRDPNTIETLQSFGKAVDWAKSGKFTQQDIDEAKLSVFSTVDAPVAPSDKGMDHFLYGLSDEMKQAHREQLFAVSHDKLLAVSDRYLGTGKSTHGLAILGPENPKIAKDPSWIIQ
T2 sequence (P49189 whole entry): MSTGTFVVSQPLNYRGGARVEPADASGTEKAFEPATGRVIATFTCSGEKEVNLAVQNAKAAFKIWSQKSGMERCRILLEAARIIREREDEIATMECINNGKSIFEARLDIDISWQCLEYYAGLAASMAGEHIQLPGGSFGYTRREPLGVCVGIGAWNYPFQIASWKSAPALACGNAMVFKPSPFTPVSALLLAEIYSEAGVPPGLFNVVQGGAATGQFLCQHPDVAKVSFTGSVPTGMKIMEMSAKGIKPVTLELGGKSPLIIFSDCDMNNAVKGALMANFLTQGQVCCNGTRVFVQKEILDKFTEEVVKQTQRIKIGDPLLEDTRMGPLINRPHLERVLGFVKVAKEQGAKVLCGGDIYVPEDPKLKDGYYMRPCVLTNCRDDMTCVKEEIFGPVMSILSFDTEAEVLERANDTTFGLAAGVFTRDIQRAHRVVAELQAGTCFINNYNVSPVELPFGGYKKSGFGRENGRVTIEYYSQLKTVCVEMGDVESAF

For the molecule `C#CCNN.Cl` [probe 1, prop-2-yn-1-ylhydrazine hydrochloride], the “Well luminescence (cell viability based on ATP levels)” value in the data set on HEK293T cells is given as 139±2 ×10^3 RLU. Further, the enrichment ratioavg in data set [1] (probe 1 3 mM 0.5 h vs probe 3) was found to be 9; in data set [2] (probe 1 3 mM 0.5 h vs probe 3), 12; in data set [3] (probe 1 3 mM 0.5 h vs probe 3), 20; in data set [4] (probe 1 3 mM 0.5 h vs probe 3), 20; in data set [5] (probe 1 3 mM 0.5 h vs probe 3) it was 12. Moreover, the competition ratioavg in data set [1] (probe 1 vs probe 1+10x probe 3) is 1; in data set [2] (probe 1 vs probe 1+10x probe 3), 2; in data set [3] (probe 1 vs probe 1+10x probe 3) it was 1; in data set [4] (probe 1 vs probe 1+10x probe 3), 1; in data set [5] (probe 1 vs probe 1+10x probe 3), 2.
